Results as given in US20090062537A1, “N-Formyl Hydrozyamine Compounds” (priority 2006, published 2009).
Changes are numbered by the printed parent chain. Values after ≈ are worked out from the molar mass of the structure shown.

How the values were obtained:
[1] = molecular target: T1, Streptococcus pneumoniae peptide deformylase, wild type (W.T.) (Streptococcus pneumoniae serotype 4, UniProt Q9F2F0); assay: Inhibition of S. pneumoniae peptide deformylase activity, wild type enzyme; assay type: biochemical; conditions: PDF W.T.
T1 sequence (Q9F2F0 1-203): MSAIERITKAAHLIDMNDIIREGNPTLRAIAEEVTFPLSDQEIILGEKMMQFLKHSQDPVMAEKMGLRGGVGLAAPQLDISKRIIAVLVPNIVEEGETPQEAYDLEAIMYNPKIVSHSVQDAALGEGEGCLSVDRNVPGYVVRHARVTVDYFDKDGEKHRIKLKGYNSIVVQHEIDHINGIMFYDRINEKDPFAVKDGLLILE
Method: (§1) A PDF/FDH coupled assay (Lazennec et al., Anal. Biochem., Vol. 224, pp. 180-182 (1997)) is used. In this coupled assay, the formate released by PDF from its substrate fMAS is oxidized by the coupling enzyme FDH, reducing one molecule of NAD^+ to NADH, which causes an increase in absorption at 340 nm. All assays are carried out at room temperature in a buffer of 50 mM HEPES, pH 7.2, 10 mM NaCl, 0.2 mg/mL BSA, In half-area 96-well microtiter plates (Corning). The reaction is initiated by adding a mixture of 0.5 Unit/mL FDH, 1 mM NAD^+, and fMAS at the desired concentration. To determine IC50 (the concentration needed to inhibit 50% of enzyme activity) values, PDF is pre-incubated for 10 minutes with varying concentrations of the inhibitor, and the deformylation reaction is initiated by the addition of reaction mixture containing 4 mM fMAS. The initial reaction velocity, y, is measured as the initial rate of absorption increase at […] using a SpectraMax plate reader (Molecular Devices, Sunnyvale, Calif.). The Inhibitor concentration [In] at which 50% of the enzyme activity is inhibited, IC50, is calculated using the following formula:
(§2) where yo is the reaction velocity in the absence of inhibitor. Solving this equation for IC50 at the [In] when y=yo/2 yields IC50. The IC50 is calculated based on a nonlinear least-square regression fit using a commercial software package (Deltapoint, Inc., Chicago, Ill.).
(§3) Peptide deformylase activity is essential for growth of S. pneumoniae. The mutants that are selected on NVP-LBM415 were not compromised for growth in vitro, therefore the mutations in defB that confer resistance to these compounds would not be expected to dramatically alter enzymatic activity. To test this hypothesis, the kinetics of peptide deformylase activity are determined using the substrate f-Met-Ala-Ser.
(§4) To investigate further, the IC50s and MICs of specific pairs of compounds differing only in this feature are determined.

[2] = molecular target: T2, Streptococcus pneumoniae peptide deformylase G70V mutant (Streptococcus pneumoniae serotype 4, UniProt Q9F2F0, G70V); assay: Inhibition of S. pneumoniae peptide deformylase activity, G70V mutant enzyme; assay type: biochemical; conditions: PDF G70V
T2 sequence (Q9F2F0 1-203 G70V): T1 sequence (Q9F2F0 1-203) with G70V
Method: as §1, §2, §3, §4

[3] = molecular target: T3, Streptococcus pneumoniae peptide deformylase G70D mutant (Streptococcus pneumoniae serotype 4, UniProt Q9F2F0, G70D); assay: Inhibition of S. pneumoniae peptide deformylase activity, G70D mutant enzyme; assay type: biochemical; conditions: PDF G70D
T3 sequence (Q9F2F0 1-203 G70D): T1 sequence (Q9F2F0 1-203) with G70D
Method: as §1, §2, §3, §4

[4] = test system: Streptococcus pneumoniae (wild type PDF); assay: MIC, culture growth of S. pneumoniae with wild type PDF; assay type: cell-based; conditions: PDF W.T.
Method: (§5) Minimum inhibitory concentrations (MICs) are determined using the microdilution method In 96-well format plates. Compounds are suspended in DMSO at 5 or 10 mg/mL and stored at 4° C. until used. They are diluted in Mueller-Hinton Broth (MHB) or Trypticase Soy Broth (TSB) and used for MIC determination. The range of concentrations tested is 64-0.0625 μg/mL final concentration using a two-fold dilution system.
(§6) The inoculum is prepared from cells grown on Trypticase Soy Agar (TSA) and incubated overnight at 35° C., 5-10 colonies are used to inoculate MHB or TSB broths, and the culture is incubated overnight at 35° C. The overnight culture is diluted 1:10, incubated for 1 hour at 35° C., diluted to the appropriate inoculum size and applied to the wells containing broth and test compound. Inoculum sizes are 2×10^4 CFU/mL.
as §4

[5] = test system: Streptococcus pneumoniae PDF G70V mutant; assay: MIC, culture growth of S. pneumoniae PDF G70V mutant; assay type: cell-based; conditions: PDFG70VMUTANT
Method: as §5, §6, §4

[6] = test system: Streptococcus pneumoniae PDF G70D mutant; assay: MIC, culture growth of S. pneumoniae PDF G70D mutant; assay type: cell-based; conditions: PDFG70DMUTANT
Method: as §5, §6, §4

| SMILES | IC50 [1] [nM] | IC50 [2] [nM] | IC50 [3] [nM] | MIC [4] [µg/mL] | MIC [5] [µg/mL] | MIC [6] [µg/mL] |
| --- | --- | --- | --- | --- | --- | --- |
| O=CN(O)C[C@@H](CC1CCCC1)C(=O)N1C[C@H](F)C[C@H]1C(=O)Nc1cnccn1 | 0.25 ± 0.04 | 0.5 | 0.34 | 0.16 ± 0.1 (≈ 0.393 µM) | 0.33 (≈ 0.81 µM) | 0.25 (≈ 0.614 µM) |
| O=CN(O)C[C@@H](CC1CCCC1)C(=O)N1C[C@H](F)C[C@H]1C(=O)Nc1cncc[n+]1[O-] | 0.37 ± 0.02 | 2.05 | 0.91 | 0.29 ± 0.11 (≈ 0.685 µM) | 2.67 (≈ 6.31 µM) | 1 (≈ 2.36 µM) |
| CCCC[C@H](CN(O)C=O)C(=O)N1C[C@H](C(C)C)C[C@H]1C(=O)Nc1ccc(F)cn1 | 0.27 ± 0.03 | 0.7 | 0.25 | 0.71 ± 0.1 (≈ 1.68 µM) | 1.43 (≈ 3.38 µM) | 1.07 (≈ 2.53 µM) |
| CCCC[C@H](CN(O)C=O)C(=O)N1C[C@H](C(C)C)C[C@H]1C(=O)Nc1ccc(F)c[n+]1[O-] | 0.31 ± 0.03 | 1.56 | 1.19 | 0.64 ± 0.09 (≈ 1.46 µM) | 6.3 (≈ 14.4 µM) | 5.14 (≈ 11.7 µM) |
| CCCC[C@H](CN(O)C=O)C(=O)N1C[C@@H](C(C)C)C[C@H]1C(=O)Nc1ccc(F)cn1 | 0.31 ± 0.04 | 1.01 | 0.46 | 1.43 ± 0.2 (≈ 3.38 µM) | 2.86 (≈ 6.77 µM) | 1.57 (≈ 3.72 µM) |
| CCCC[C@H](CN(O)C=O)C(=O)N1C[C@@H](C(C)C)C[C@H]1C(=O)Nc1ccc(F)c[n+]1[O-] | 0.23 ± 0.04 | 1.78 | 1.38 ± 0.78 | 1.42 ± 0.2 (≈ 3.24 µM) | 10.3 (≈ 23.5 µM) | 10.3 (≈ 23.4 µM) |
| CCCC[C@H](CN(O)C=O)C(=O)N1CCC[C@H]1C(=O)Nc1ccc(F)c[n+]1[O-] [reference compound] | 0.31 ± 0.03 | 1.35 | 1.28 | 0.45 ± 0.07 (≈ 1.14 µM) | 5.8 (≈ 14.6 µM) | 6.44 (≈ 16.2 µM) |
